Assay results published in patent US20230016424A1, “HYBRID AMIDE DERIVATIVES OF AMPHOTERICIN B” (The Board of Trustees of the University of Illinois, priority 2019, published 2023).
Converted amounts (≈) assume the structure as drawn.

How the values were obtained:
[1] = tested on: C. tropicalis; assay: MIC; assay type: cell-based
[2] = tested on: C. albicans SN250; assay: MIC; assay type: cell-based, Candida albicans
[3] = tested on: A. fumigatus 91; assay: MIC; assay type: cell-based
[4] = tested on: C. albicans SN250, C. albicans, C. krusei, C. glabrata, C. tropicalis, A. fumigatus 91, 1163, 1100; assay: Average MIC over the tested strains; assay type: cell-based; conditions: for MIC: average over the 8 listed strains; for Average MIC for AmB analogue: value of the corresponding AmB analogue, not of the C2’epi compound
[5] = tested on: A. fumigatus 1100; assay: MIC; assay type: cell-based
[6] = tested on: C. albicans; assay: MIC; assay type: cell-based
[7] = tested on: C. krusei; assay: MIC; assay type: cell-based
[8] = tested on: A. fumigatus 1163; assay: MIC; assay type: cell-based
[9] = tested on: C. glabrata; assay: MIC; assay type: cell-based

Compound	MIC C. tropicalis [1] [µM]	MIC C. albicans SN250 [2] [µM]	MIC A. fumigatus 91 [3] [µM]	MIC [4] [µM]	MIC A. fumigatus 1100 [5] [µM]	MIC C. albicans [6] [µM]	MIC C. krusei [7] [µM]	MIC A. fumigatus 1163 [8] [µM]	MIC C. glabrata [9] [µM]	Average MIC for AmB analogue [4] [μM]
CC(C)CC(CO)NC(=O)C1C(O)CC2(O)CC(O)CC(O)C(O)CCC(O)CC(O)CC(=O)OC(C)C(C)C(O)C(C)C=CC=CC=CC=CC=CC=CC=CC(OC3OC(C)C(O)C(N)C3O)CC1O2 (centres unmarked) [AE]	0.5 (≈ 0.512 µg/mL)	1 (≈ 1.02 µg/mL)	2 (≈ 2.05 µg/mL)	0.956	1 (≈ 1.02 µg/mL)	0.75 (≈ 0.767 µg/mL)	1 (≈ 1.02 µg/mL)	1 (≈ 1.02 µg/mL)	0.4 (≈ 0.409 µg/mL)	
CC(CO)NC(=O)C1C(O)CC2(O)CC(O)CC(O)C(O)CCC(O)CC(O)CC(=O)OC(C)C(C)C(O)C(C)C=CC=CC=CC=CC=CC=CC=CC(OC3OC(C)C(O)C(N)C3O)CC1O2 (centres unmarked) [AC]	0.35 (≈ 0.343 µg/mL)	0.3 (≈ 0.294 µg/mL)	2 (≈ 1.96 µg/mL)	0.713	1 (≈ 0.981 µg/mL)	0.3 (≈ 0.294 µg/mL)	0.45 (≈ 0.442 µg/mL)	1 (≈ 0.981 µg/mL)	0.3 (≈ 0.294 µg/mL)	
CC1C=CC=CC=CC=CC=CC=CC=CC(OC2OC(C)C(O)C(N)C2O)CC2OC(O)(CC(O)CC(O)C(O)CCC(O)CC(O)CC(=O)OC(C)C(C)C1O)CC(O)C2C(=O)NCC(O)CO (centres unmarked) [AK]	0.3 (≈ 0.299 µg/mL)	0.15 (≈ 0.15 µg/mL)	1 (≈ 0.997 µg/mL)	0.431	0.75 (≈ 0.748 µg/mL)	0.25 (≈ 0.249 µg/mL)	0.4 (≈ 0.399 µg/mL)	0.5 (≈ 0.499 µg/mL)	0.1 (≈ 0.0997 µg/mL)	
CC1C=CC=CC=CC=CC=CC=CC=CC(OC2OC(C)C(O)C(N)C2O)CC2OC(O)(CC(O)CC(O)C(O)CCC(O)CC(O)CC(=O)OC(C)C(C)C1O)CC(O)C2C(=O)NCCS (centres unmarked) [AB]	0.45 (≈ 0.442 µg/mL)	0.4 (≈ 0.393 µg/mL)	1 (≈ 0.983 µg/mL)	0.706	1 (≈ 0.983 µg/mL)	0.45 (≈ 0.442 µg/mL)	1 (≈ 0.983 µg/mL)	1 (≈ 0.983 µg/mL)	0.35 (≈ 0.344 µg/mL)	
CC1C=CC=CC=CC=CC=CC=CC=CC(OC2OC(C)C(O)C(N)C2O)CC2OC(O)(CC(O)CC(O)C(O)CCC(O)CC(O)CC(=O)OC(C)C(C)C1O)CC(O)C2C(=O)NC1CCC1 (centres unmarked) [BE]	1 (≈ 0.977 µg/mL)	1 (≈ 0.977 µg/mL)	8 (≈ 7.82 µg/mL)	3.563	4 (≈ 3.91 µg/mL)	2 (≈ 1.95 µg/mL)	4 (≈ 3.91 µg/mL)	8 (≈ 7.82 µg/mL)	0.5 (≈ 0.489 µg/mL)	1.281
CC1C=CC=CC=CC=CC=CC=CC=CC(OC2OC(C)C(O)C(N)C2O)CC2OC(O)(CC(O)CC(O)C(O)CCC(O)CC(O)CC(=O)OC(C)C(C)C1O)CC(O)C2C(=O)NCC(C)(C)O (centres unmarked) [AI]	0.45 (≈ 0.448 µg/mL)	0.3 (≈ 0.299 µg/mL)	1 (≈ 0.995 µg/mL)	0.675	1 (≈ 0.995 µg/mL)	0.4 (≈ 0.398 µg/mL)	1 (≈ 0.995 µg/mL)	1 (≈ 0.995 µg/mL)	0.25 (≈ 0.249 µg/mL)	
CC1C=CC=CC=CC=CC=CC=CC=CC(OC2OC(C)C(O)C(N)C2O)CC2OC(O)(CC(O)CC(O)C(O)CCC(O)CC(O)CC(=O)OC(C)C(C)C1O)CC(O)C2C(=O)NC(CO)C(C)(C)C (centres unmarked) [AF]	0.75 (≈ 0.767 µg/mL)	0.4 (≈ 0.409 µg/mL)	2 (≈ 2.05 µg/mL)	1.131	2 (≈ 2.05 µg/mL)	0.5 (≈ 0.512 µg/mL)	1 (≈ 1.02 µg/mL)	2 (≈ 2.05 µg/mL)	0.4 (≈ 0.409 µg/mL)	
CC1C=CC=CC=CC=CC=CC=CC=CC(OC2OC(C)C(O)C(N)C2O)CC2OC(O)(CC(O)CC(O)C(O)CCC(O)CC(O)CC(=O)OC(C)C(C)C1O)CC(O)C2C(=O)NC1CC1 (centres unmarked) [BD]	0.5 (≈ 0.482 µg/mL)	0.5 (≈ 0.482 µg/mL)	8 (≈ 7.71 µg/mL)	3.063	4 (≈ 3.85 µg/mL)	1 (≈ 0.963 µg/mL)	4 (≈ 3.85 µg/mL)	6 (≈ 5.78 µg/mL)	0.5 (≈ 0.482 µg/mL)	0.500
